Laboratory results taken from the NIST ThermoML archive (doi:10.1021/acs.jced.7b00694).

Assay: xn = mol fraction of the nth substance listed
Details: Gas, Buoyancy - hydrostatic balance with magnetic suspension - one sinker

[HH] [hydrogen] + N#N
Details | mass density [kg/m3]
250.04 K, 11001 kPa, x2 = 0.9 | 137.2
250.04 K, 11002 kPa, x2 = 0.5001 | 76.353
250.04 K, 12001 kPa, x2 = 0.5001 | 82.831
250.04 K, 12002 kPa, x2 = 0.9 | 149.273
250.04 K, 13003 kPa, x2 = 0.5001 | 89.231
250.04 K, 13005 kPa, x2 = 0.9 | 161.179
250.04 K, 14001 kPa, x2 = 0.5001 | 95.51
250.04 K, 15005 kPa, x2 = 0.5001 | 101.724
250.04 K, 15008 kPa, x2 = 0.9 | 184.307
250.04 K, 16003 kPa, x2 = 0.5001 | 107.801
250.04 K, 17004 kPa, x2 = 0.5001 | 113.79
250.04 K, 17014 kPa, x2 = 0.9 | 206.478
250.04 K, 18007 kPa, x2 = 0.5001 | 119.684
250.04 K, 18011 kPa, x2 = 0.9 | 217.113
250.04 K, 19005 kPa, x2 = 0.5001 | 125.441
250.04 K, 19653 kPa, x2 = 0.9 | 234.021
250.04 K, 19934 kPa, x2 = 0.5001 | 130.7
250.05 K, 14008 kPa, x2 = 0.9 | 172.872
250.05 K, 16004 kPa, x2 = 0.9 | 195.446
250.05 K, 19014 kPa, x2 = 0.9 | 227.523
260.02 K, 999 kPa, x2 = 0.95 | 12.396
260.02 K, 1998 kPa, x2 = 0.95 | 24.915
260.02 K, 2987 kPa, x2 = 0.95 | 37.39
260.02 K, 3998 kPa, x2 = 0.95 | 50.206
260.02 K, 4998 kPa, x2 = 0.95 | 62.921
260.02 K, 5998 kPa, x2 = 0.95 | 75.652
260.02 K, 6997 kPa, x2 = 0.95 | 88.348
260.02 K, 8004 kPa, x2 = 0.95 | 101.083
260.02 K, 8999 kPa, x2 = 0.95 | 113.598
260.02 K, 10003 kPa, x2 = 0.95 | 126.121
260.02 K, 11004 kPa, x2 = 0.95 | 138.476
260.02 K, 12004 kPa, x2 = 0.95 | 150.65
260.02 K, 13007 kPa, x2 = 0.95 | 162.68
260.02 K, 13989 kPa, x2 = 0.95 | 174.256
260.02 K, 15009 kPa, x2 = 0.95 | 186.058
260.02 K, 16012 kPa, x2 = 0.95 | 197.415
260.02 K, 17003 kPa, x2 = 0.95 | 208.387
260.02 K, 18018 kPa, x2 = 0.95 | 219.361
260.02 K, 19020 kPa, x2 = 0.95 | 229.93
260.02 K, 19954 kPa, x2 = 0.95 | 239.529
260.03 K, 998 kPa, x2 = 0.9 | 11.773
260.03 K, 2000 kPa, x2 = 0.9 | 23.676
260.04 K, 2987 kPa, x2 = 0.9 | 35.462
260.04 K, 3998 kPa, x2 = 0.9 | 47.566
260.04 K, 4998 kPa, x2 = 0.9 | 59.561
260.04 K, 5998 kPa, x2 = 0.9 | 71.547
260.04 K, 6999 kPa, x2 = 0.9 | 83.502
260.04 K, 7999 kPa, x2 = 0.9 | 95.394
260.04 K, 9000 kPa, x2 = 0.9 | 107.209
260.04 K, 10001 kPa, x2 = 0.9 | 118.929
260.04 K, 11002 kPa, x2 = 0.9 | 130.507
260.04 K, 12001 kPa, x2 = 0.9 | 141.918
260.04 K, 13005 kPa, x2 = 0.9 | 153.211
260.04 K, 14004 kPa, x2 = 0.9 | 164.255
260.04 K, 15004 kPa, x2 = 0.9 | 175.116
260.04 K, 16007 kPa, x2 = 0.9 | 185.789
260.04 K, 17014 kPa, x2 = 0.9 | 196.279
260.04 K, 18009 kPa, x2 = 0.9 | 206.415
260.04 K, 19010 kPa, x2 = 0.9 | 216.361
260.04 K, 19736 kPa, x2 = 0.9 | 223.429
274.98 K, 997 kPa, x2 = 0.9 | 11.103
274.98 K, 1997 kPa, x2 = 0.9 | 22.285
274.99 K, 997 kPa, x2 = 0.95 | 11.688
274.99 K, 998 kPa, x2 = 0.5001 | 6.537
274.99 K, 1998 kPa, x2 = 0.5001 | 13.041
274.99 K, 1998 kPa, x2 = 0.95 | 23.478
274.99 K, 2986 kPa, x2 = 0.95 | 35.164
274.99 K, 2997 kPa, x2 = 0.9 | 33.49
274.99 K, 2998 kPa, x2 = 0.5001 | 19.501
274.99 K, 3997 kPa, x2 = 0.5001 | 25.901
274.99 K, 3997 kPa, x2 = 0.9 | 44.699
274.99 K, 3997 kPa, x2 = 0.95 | 47.147
274.99 K, 4997 kPa, x2 = 0.5001 | 32.248
274.99 K, 4997 kPa, x2 = 0.95 | 58.999
274.99 K, 4998 kPa, x2 = 0.9 | 55.901
274.99 K, 5997 kPa, x2 = 0.5001 | 38.535
274.99 K, 5998 kPa, x2 = 0.9 | 67.065
274.99 K, 5998 kPa, x2 = 0.95 | 70.84
274.99 K, 6997 kPa, x2 = 0.5001 | 44.758
274.99 K, 6998 kPa, x2 = 0.9 | 78.183
274.99 K, 6998 kPa, x2 = 0.95 | 82.636
274.99 K, 7997 kPa, x2 = 0.5001 | 50.911
274.99 K, 7998 kPa, x2 = 0.9 | 89.232
274.99 K, 8000 kPa, x2 = 0.95 | 94.385
274.99 K, 8998 kPa, x2 = 0.5001 | 57.003
274.99 K, 9000 kPa, x2 = 0.9 | 100.212
274.99 K, 9000 kPa, x2 = 0.95 | 106.023
274.99 K, 9998 kPa, x2 = 0.5001 | 63.009
274.99 K, 9998 kPa, x2 = 0.9 | 111.047
274.99 K, 10001 kPa, x2 = 0.95 | 117.586
274.99 K, 10998 kPa, x2 = 0.5001 | 68.948
274.99 K, 11001 kPa, x2 = 0.9 | 121.821
274.99 K, 11002 kPa, x2 = 0.95 | 129.012
274.99 K, 11996 kPa, x2 = 0.5001 | 74.789
274.99 K, 12001 kPa, x2 = 0.9 | 132.405
274.99 K, 12003 kPa, x2 = 0.95 | 140.289
274.99 K, 13000 kPa, x2 = 0.5001 | 80.586
274.99 K, 13002 kPa, x2 = 0.9 | 142.866
274.99 K, 13002 kPa, x2 = 0.95 | 151.394
274.99 K, 13998 kPa, x2 = 0.5001 | 86.267
